Test system: HUVEC cells (Human Umbilical Vein Endothelial Cells)
Test: Proliferation assay with LL37-loaded nanoparticles (CCK-8)
Format: cell-based
Details: 0.5 and 0.1 μg/ml LL37, after 48 hours, FIG. 6

## free LL37: Cathelicidin antimicrobial peptide LL37, SEQ ID NO 1 (LLGDFFRKSKEKIGKEFKRIVQRIKDFLRNLVPRTES), non-encapsulated
  cell proliferation compared with control groups: greater cell proliferation

— patent US10206886B2, “Lipid nanoparticles for wound healing” (Praxis Biopharma Research Institute, priority 2013, dated 2019)
